Experimental data as given in ChEMBL document CHEMBL1130967, “Modulation of apoptosis in human lymphocytes by adenosine analogues” (1998).

Assays:
Assay type in all cases: functional
[1] = Percentage of apoptotic cells in human peripheral blood mononuclear cells after 72 hour incubation at the concentration 60 uM; conditions: at 60 µM
[2] = Percentage of apoptotic cells in human peripheral blood mononuclear cells after 72 hour incubation at the concentration 10 uM; conditions: at 10 µM
[3] = Percentage of apoptotic cells in human peripheral blood mononuclear cells after 72 hour incubation at the concentration 30 uM; conditions: at 30 µM
[4] = Percentage of apoptotic cells in human peripheral blood mononuclear cells after 72 hour incubation at the concentration 1 uM; conditions: at 1 µM

In the case of `OC[C@H]1O[C@@H](n2cnc3c(NC4CCCC4)nc(Cl)nc32)C[C@@H]1O`, the Apoptotic cells [1] is reported as 38.8%, the Apoptotic cells [2] is reported as 10% and the Apoptotic cells [3] is reported as 18.8%. For the same compound, the Apoptotic cells [4] was 4.7%.
For `OC[C@H]1O[C@@H](n2cnc3c(NC4CCCC4)ncnc32)C[C@@H]1O`, the Apoptotic cells [1] was 8.7%, the Apoptotic cells [2] was 7.9% and the Apoptotic cells [3] was 7.1%. It also gave an Apoptotic cells [4] of 6.7%.
Work on `OC[C@H]1O[C@@H](n2cnc3c(NC4CCCCCC4)ccnc32)C[C@@H]1O` yielded an Apoptotic cells [1] of 9.6%, an Apoptotic cells [2] of 8.1% and an Apoptotic cells [3] of 8.9%. It also gave an Apoptotic cells [4] of 7.7%.
In the case of `Nc1ccnc2c1ncn2[C@@H]1O[C@H](CO)[C@@H](O)[C@H]1O`, the Apoptotic cells [1] is reported as 10.7%, the Apoptotic cells [2] is reported as 16.6% and the Apoptotic cells [3] is reported as 12.8%. The Apoptotic cells [4] was 8%.
For `Nc1nc(Cl)nc2c1ncn2C1CCC(CO)O1` (stereo not given), the Apoptotic cells [1] was 11.4%, the Apoptotic cells [2] was 8.5% and the Apoptotic cells [3] was 9.6%. For the same compound, the Apoptotic cells [4] was 4.7%.
`Nc1nccc2c1ncn2[C@@H]1O[C@H](CO)[C@@H](O)[C@H]1O` showed an Apoptotic cells [1] of 10.7%, an Apoptotic cells [2] of 6.5% and an Apoptotic cells [3] of 11.9%. It also gave an Apoptotic cells [4] of 9.9%.
Compound `Nc1nc(Cl)nc2c1ncn2[C@H]1C[C@H](O)[C@@H](CO)O1` [CLADRIBINE] has an Apoptotic cells [1] of 94.7%, an Apoptotic cells [2] of 91.2% and an Apoptotic cells [3] of 93.8%. The Apoptotic cells [4] was 91%.
`OC[C@H]1O[C@@H](n2cnc3c(NC4CCCC4)nc(Cl)nc32)[C@H](O)[C@@H]1O` showed an Apoptotic cells [1] of 11%, an Apoptotic cells [2] of 10.4% and an Apoptotic cells [3] of 9.6%. The Apoptotic cells [4] was 5.4%.
In the case of `Nc1nc(I)nc2c1ncn2[C@@H]1O[C@H](CO)[C@@H](O)[C@H]1O`, the Apoptotic cells [1] is reported as 12.2%, the Apoptotic cells [2] is reported as 12.1% and the Apoptotic cells [3] is reported as 12%. It also gave an Apoptotic cells [4] of 9.1%.
For `Nc1nc(Cl)nc2c1ncn2C1OC(CO)CC1O` (stereo not given), the Apoptotic cells [1] was 10.4%, the Apoptotic cells [2] was 13% and the Apoptotic cells [3] was 11.4%. For the same compound, the Apoptotic cells [4] was 7.7%.
Work on `OC[C@H]1O[C@@H](n2cnc3c(NC4CCCCCC4)nc(Cl)nc32)C[C@@H]1O` yielded an Apoptotic cells [1] of 16.3%, an Apoptotic cells [2] of 7.9% and an Apoptotic cells [3] of 12.3%. It also gave an Apoptotic cells [4] of 8.2%.
Compound `Nc1nc(Cl)nc2c1ncn2[C@@H]1O[C@H](CO)[C@@H](O)[C@H]1O` has an Apoptotic cells [1] of 91.9%, an Apoptotic cells [2] of 41.8% and an Apoptotic cells [3] of 82.7%. It also gave an Apoptotic cells [4] of 8.8%.
Work on `OC[C@H]1O[C@@H](n2cnc3c(NC4CC4)nc(Cl)nc32)C[C@@H]1O` yielded an Apoptotic cells [1] of 24.7%, an Apoptotic cells [2] of 7.7% and an Apoptotic cells [3] of 17.9%. It also gave an Apoptotic cells [4] of 7.8%.
Compound `Nc1cc(Cl)nc2c1ncn2[C@H]1C[C@H](O)[C@@H](CO)O1` has an Apoptotic cells [1] of 10.6%, an Apoptotic cells [2] of 8.7% and an Apoptotic cells [3] of 9.8%. The Apoptotic cells [4] was 5%.
Work on `Nc1cc(Cl)nc2c1ncn2[C@@H]1O[C@H](CO)[C@@H](O)[C@H]1O` yielded an Apoptotic cells [1] of 12.1%, an Apoptotic cells [2] of 10.4% and an Apoptotic cells [3] of 11.1%. The Apoptotic cells [4] was 10.2%.
In the case of `OC[C@H]1O[C@@H](n2cnc3c(NC4CCCC4)nc(Cl)cc32)C[C@@H]1O`, the Apoptotic cells [1] is reported as 15.2%, the Apoptotic cells [2] is reported as 13.5% and the Apoptotic cells [3] is reported as 14.9%. It also gave an Apoptotic cells [4] of 13.1%.
`OC[C@H]1O[C@@H](n2cnc3c(NC4CCCCCC4)cc(Cl)nc32)C[C@@H]1O` showed an Apoptotic cells [1] of 10.5%, an Apoptotic cells [2] of 7.9% and an Apoptotic cells [3] of 9.6%. The Apoptotic cells [4] was 7.4%.
`Nc1nc(Cl)cc2c1ncn2[C@H]1C[C@H](O)[C@@H](CO)O1` gave an Apoptotic cells [1] of 59.2%, an Apoptotic cells [2] of 20.2% and an Apoptotic cells [3] of 34.5%. For the same compound, the Apoptotic cells [4] was 16.6%.
`OC[C@H]1O[C@@H](n2cnc3c(NC4CC4)cc(Cl)nc32)C[C@@H]1O` showed an Apoptotic cells [1] of 11.4%, an Apoptotic cells [2] of 10.4% and an Apoptotic cells [3] of 10.8%. For the same compound, the Apoptotic cells [4] was 7.3%.
In the case of `OC[C@H]1O[C@@H](n2cnc3c(NC4CCCC4)ccnc32)C[C@@H]1O`, the Apoptotic cells [1] is reported as 9.9%, the Apoptotic cells [2] is reported as 9.8% and the Apoptotic cells [3] is reported as 9.5%. The Apoptotic cells [4] was 9.8%.
`Nc1nc(Cl)cc2c1ncn2C1O[C@H](CO)[C@@H](O)[C@H]1O` (stereo not given in full) gave an Apoptotic cells [1] of 10.3%, an Apoptotic cells [2] of 9% and an Apoptotic cells [3] of 9.6%. It also gave an Apoptotic cells [4] of 9.6%.
Compound `OC[C@H]1O[C@@H](n2cnc3c(NC4CCCC4)cc(Cl)nc32)C[C@@H]1O` has an Apoptotic cells [1] of 13.9%, an Apoptotic cells [2] of 9.7% and an Apoptotic cells [3] of 12%. It also gave an Apoptotic cells [4] of 8.6%.
Compound `OC[C@H]1O[C@@H](n2cnc3c(NC4CCCCCC4)ncnc32)C[C@@H]1O` has an Apoptotic cells [1] of 11.1%, an Apoptotic cells [2] of 9.4% and an Apoptotic cells [3] of 9.8%. It also gave an Apoptotic cells [4] of 8%.
For `OC[C@H]1O[C@@H](n2cnc3c(NC4CC4)ncnc32)C[C@@H]1O`, the Apoptotic cells [1] was 10.6%, the Apoptotic cells [2] was 9.5% and the Apoptotic cells [3] was 9.5%. For the same compound, the Apoptotic cells [4] was 7.1%.
In the case of `CNC(=O)C1OC(n2cnc3c(N)nc(Cl)nc32)CC1O` (stereo not given), the Apoptotic cells [1] is reported as 10.7%, the Apoptotic cells [2] is reported as 8.1% and the Apoptotic cells [3] is reported as 10.4%. It also gave an Apoptotic cells [4] of 4.5%.
